Data published in ChEMBL document CHEMBL1201862, “PubChem BioAssay data set” (2004).
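Tested at 5 concentrations; 48 h exposure; 96-well plates; endpoints linearly interpolated, else capped at highest concentration. GI50 is the concentration that inhibits growth by half.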 Active and inactive are the calls of the source. No stated cut-off is given here; in the data, active = GI50 up to about 1.1 µM and inactive = higher.

How the values were obtained:
Experiment in all cases: NCI-60 cell line screen, 48 h
SW-620 = test system: SW-620
OVCAR-3 = test system: OVCAR-3
SK-MEL-28 = test system: SK-MEL-28
OVCAR-4 = test system: OVCAR-4
Malme-3M = test system: Malme-3M
HCT-116 = test system: HCT-116
SF-268 = test system: SF-268
RXF 393 = test system: RXF 393
MOLT-4 = test system: MOLT-4
NCI-H23 = test system: NCI-H23
EKVX = test system: EKVX
UACC-62 = test system: UACC-62
OVCAR-8 = test system: OVCAR-8
SK-MEL-2 = test system: SK-MEL-2
TK-10 = test system: TK-10
NCI-H460 = test system: NCI-H460
A498 = test system: A498

Measured: GI50

C(=N\OCc1ccccc1)/c1ncccc1C1OCCO1
inactive: SW-620 > 100 µM | OVCAR-3 > 100 µM | SK-MEL-28 > 100 µM | OVCAR-4 > 100 µM | Malme-3M > 100 µM | HCT-116 > 100 µM | SF-268 > 100 µM | RXF 393 > 100 µM | MOLT-4 > 100 µM | NCI-H23 > 100 µM | EKVX > 100 µM | UACC-62 > 100 µM | OVCAR-8 > 100 µM | SK-MEL-2 > 100 µM | TK-10 > 100 µM | NCI-H460 > 100 µM

C=CCC1[C@@H](C(C)(C)C(C(C)=O)C(=O)C(=O)OC)OC(C(C)(C)C)N1C(=O)OC (stereo not given in full)
inactive: OVCAR-3 > 100 µM | SK-MEL-28 > 100 µM | OVCAR-4 > 100 µM | Malme-3M > 100 µM | HCT-116 47.4 µM | SF-268 > 100 µM | RXF 393 > 100 µM | MOLT-4 24.6 µM | NCI-H23 > 100 µM | EKVX > 100 µM | UACC-62 > 100 µM | OVCAR-8 > 100 µM | SK-MEL-2 > 100 µM | TK-10 > 100 µM | A498 > 100 µM | NCI-H460 > 100 µM

CC1CC2OC(=O)C3CC(O)CC(=C23)[C@@]12C[C@@H](c1ccoc1)OC2=O (stereo not given in full)
inactive: SW-620 > 100 µM | OVCAR-3 > 100 µM | SK-MEL-28 > 100 µM | OVCAR-4 > 100 µM | Malme-3M > 100 µM | HCT-116 > 100 µM | SF-268 > 100 µM | RXF 393 > 100 µM | MOLT-4 > 100 µM | NCI-H23 > 100 µM | EKVX > 100 µM | UACC-62 > 100 µM | OVCAR-8 > 100 µM | SK-MEL-2 > 100 µM | TK-10 > 100 µM | NCI-H460 > 100 µM

CN(/N=C/c1cccc2cccnc12)c1ccc([N+](=O)[O-])cc1
inactive: SW-620 > 100 µM | OVCAR-3 > 100 µM | SK-MEL-28 > 100 µM | Malme-3M > 100 µM | HCT-116 > 100 µM | SF-268 > 100 µM | RXF 393 > 100 µM | MOLT-4 > 100 µM | NCI-H23 > 100 µM | EKVX > 100 µM | UACC-62 > 100 µM | OVCAR-8 > 100 µM | SK-MEL-2 > 100 µM | TK-10 91.2 µM | A498 > 100 µM | NCI-H460 8.07 µM

Cl[Si]1(Cl)Oc2ccccc2O[Si](Cl)(Cl)Oc2ccccc2O1
inactive: SW-620 15 µM | OVCAR-3 21.7 µM | SK-MEL-28 33.3 µM | OVCAR-4 11.8 µM | Malme-3M 18.7 µM | HCT-116 33.2 µM | SF-268 15 µM | MOLT-4 3.25 µM | NCI-H23 14.8 µM | EKVX 31 µM | UACC-62 5.08 µM | OVCAR-8 30.5 µM | SK-MEL-2 20.5 µM | TK-10 46.1 µM | A498 36.2 µM | NCI-H460 6.9 µM

O=C(CSc1nc(-c2ccccc2)c(-c2ccccc2)[nH]1)N/N=C/c1ccc([N+](=O)[O-])cc1
inactive: OVCAR-3 15.1 µM | SK-MEL-28 15.6 µM | OVCAR-4 23 µM | Malme-3M 18.4 µM | HCT-116 18.7 µM | SF-268 16.2 µM | MOLT-4 18.6 µM | NCI-H23 14.7 µM | OVCAR-8 10.3 µM | SK-MEL-2 13.8 µM | TK-10 15.7 µM | A498 14 µM | NCI-H460 19.4 µM

Clc1ccc(SCCSCCCCCCCCCCSCCSc2ccc(Cl)cc2)cc1
inactive: SW-620 > 100 µM | OVCAR-3 > 100 µM | SK-MEL-28 > 100 µM | Malme-3M > 100 µM | SF-268 > 100 µM | RXF 393 > 100 µM | MOLT-4 > 100 µM | NCI-H23 > 100 µM | EKVX > 100 µM | UACC-62 > 100 µM | OVCAR-8 > 100 µM | SK-MEL-2 > 100 µM | TK-10 > 100 µM | A498 > 100 µM | NCI-H460 > 100 µM

CC(C)N(C(=O)C12C3C4C5(C#N)C3C1(C#N)C5C42C#N)C(C)C (stereo not given)
inactive: SW-620 > 100 µM | OVCAR-3 > 100 µM | SK-MEL-28 > 100 µM | OVCAR-4 > 100 µM | Malme-3M > 100 µM | HCT-116 > 100 µM | SF-268 > 100 µM | MOLT-4 > 100 µM | NCI-H23 > 100 µM | EKVX > 100 µM | UACC-62 > 100 µM | OVCAR-8 > 100 µM | SK-MEL-2 > 100 µM | TK-10 > 100 µM | A498 > 100 µM | NCI-H460 > 100 µM

C[P+]1(c2ccccc2)CCCCC1
inactive: SW-620 > 100 µM | OVCAR-3 > 100 µM | SK-MEL-28 > 100 µM | OVCAR-4 > 100 µM | Malme-3M > 100 µM | SF-268 > 100 µM | RXF 393 > 100 µM | MOLT-4 > 100 µM | NCI-H23 > 100 µM | EKVX > 100 µM | UACC-62 > 100 µM | OVCAR-8 > 100 µM | SK-MEL-2 > 100 µM | TK-10 > 100 µM | A498 > 100 µM | NCI-H460 > 100 µM
